How the values were obtained:
SHV-5 = target: T1, SHV-5 (Klebsiella pneumoniae, UniProt P0A3M1); test: β-lactamase enzyme inhibition assay, SHV-5 (cefotaxime substrate); type: biochemical
T1 construct: made in house; host or cells: E. coli BL21(DE3)
How it was run: (§1)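 Native untagged β-lactamases were expressed in E. coli BL21(DE3), then purified by cation exchange and gel filtration. Enzyme was preincubated with inhibitor for 15 min at 37 °C before substrate was added. Imipenem (A300) served KPC-2 and cefotaxime (A260) served SHV-5. IC50 was taken from initial hydrolysis rates relative to no-inhibitor controls.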

KPC-2 = target: T2, KPC-2 (Klebsiella pneumoniae, UniProt Q9F663); test: β-lactamase enzyme inhibition assay, KPC-2 (imipenem substrate); type: biochemical; conditions: Class A; imipenem substrate, 300 nm; read-out: KPC-2
T2 construct: made in house; host or cells: E. coli BL21(DE3)
How it was run: as §1

VIM-2 = target: T3, VIM-2 (Escherichia coli, UniProt Q5U7L7); test: β-lactamase enzyme inhibition assay, VIM-2 (nitrocefin substrate); type: biochemical; conditions: Class B; nitrocefin substrate, 486 nm; read-out: VIM-2
T3 construct: made in house; host or cells: E. coli BL21(DE3)
How it was run: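 Purified VIM-2 preincubated with inhibitor for 15 min at 37° C, then nitrocefin (100 μM final) added and absorbance at 486 nm followed for 10 min. Maximum hydrolysis rates compared with inhibitor-free controls; IC50 fitted from percent inhibition across inhibitor concentrations.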

AmpC = target: T4, AmpC (Enterobacter cloacae, UniProt P05364); test: β-lactamase enzyme inhibition assay, p99 AmpC (nitrocefin substrate); type: biochemical
T4 construct: made in house; host or cells: E. coli BL21(DE3)
How it was run: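 Native untagged β-lactamases were expressed in E. coli BL21(DE3), then purified by cation exchange and gel filtration. Enzyme was preincubated with inhibitor for 15 min at 37 °C before substrate was added. IC50 was taken from initial hydrolysis rates relative to no-inhibitor controls.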

OXA-48 = OXA-48 (UniProt Q6XEC0); test: β-lactamase enzyme inhibition assay, Class D oxacillinase; type: biochemical; conditions: read-out: OXA-48
[1] = system: E. coli expressing the Class A Extended Spectrum Beta-Lactamase (ESBL) CTX-M-15; test: Broth microdilution MIC assay with ceftazidime, E. coli CTX-M-15; type: cell-based; conditions: Fixed CAZ (ceftazidime) 4 μg/mL; E. coli ESBL4 CTX-M-15
How it was run: (§2)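 Test compounds in 2-fold dilutions (16 to 0.125 μg/mL final) in CAMHB were combined with a β-lactam at a static 4 μg/ml final. Plates were inoculated per CLSI broth microdilution with the β-lactamase-producing strain (pre-grown 3-5 h) and incubated 16-20 h at 37° C. MIC of test compound was read visually.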

[2] = system: E. cloacae expressing the Class C P99; test: Broth microdilution MIC assay with ceftazidime, E. cloacae P99; type: cell-based; conditions: Fixed CAZ (ceftazidime) 4 μg/mL; E. cl. 144200 p99 AmpC
How it was run: as §2

[3] = system: K. pneumoniae expressing the Class A carbapenemase KPC-2; test: Broth microdilution MIC assay with meropenem, K. pneumoniae KPC-2; type: cell-based; conditions: Fixed Mero (meropenem) 4 μg/mL; K. p. 156319 KPC-3
How it was run: as §2

[4] = system: P. aeruginosa expressing the Class B carbapenemase VIM-2; test: Broth microdilution MIC assay with meropenem, P. aeruginosa VIM-2; type: cell-based; conditions: Fixed Mero (meropenem) 4 μg/mL; P. aerug. 2775 VIM-2
How it was run: as §2

[5] = system: K. pneumoniae expressing the class A carbapenemase KPC-2 and the class B carbapenemase VIM-4; test: Broth microdilution MIC assay with meropenem, K. pneumoniae KPC-2 and VIM-4; type: cell-based; conditions: Fixed Mero (meropenem) 4 μg/mL; K. p. A-1797 KPC-2 VIM-4
How it was run: as §2

[6] = system: K. pneumoniae producing the Class D carbapenemase OXA-48; test: Broth microdilution MIC assay with meropenem, K. pneumoniae OXA-48; type: cell-based; conditions: Fixed Mero (meropenem) 4 μg/mL; K. p. 11978 OXA-48
How it was run: as §2

T1 sequence (P0A3M1 22-286): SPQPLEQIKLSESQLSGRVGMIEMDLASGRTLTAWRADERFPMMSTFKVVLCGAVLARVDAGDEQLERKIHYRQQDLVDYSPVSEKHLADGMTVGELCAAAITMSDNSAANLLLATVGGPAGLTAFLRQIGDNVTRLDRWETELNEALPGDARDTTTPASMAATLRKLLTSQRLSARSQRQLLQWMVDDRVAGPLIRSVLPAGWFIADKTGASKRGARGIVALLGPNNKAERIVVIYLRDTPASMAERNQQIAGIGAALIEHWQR
T2 sequence (Q9F663 25-293, looked up): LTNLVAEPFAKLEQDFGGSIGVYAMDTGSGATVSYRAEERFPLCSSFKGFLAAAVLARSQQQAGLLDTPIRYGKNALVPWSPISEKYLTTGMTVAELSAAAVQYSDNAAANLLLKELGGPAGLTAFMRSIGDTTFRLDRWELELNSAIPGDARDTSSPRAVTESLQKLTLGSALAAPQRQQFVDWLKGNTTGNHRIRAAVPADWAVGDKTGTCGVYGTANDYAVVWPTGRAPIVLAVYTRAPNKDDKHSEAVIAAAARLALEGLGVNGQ
T4 sequence (P05364 21-381): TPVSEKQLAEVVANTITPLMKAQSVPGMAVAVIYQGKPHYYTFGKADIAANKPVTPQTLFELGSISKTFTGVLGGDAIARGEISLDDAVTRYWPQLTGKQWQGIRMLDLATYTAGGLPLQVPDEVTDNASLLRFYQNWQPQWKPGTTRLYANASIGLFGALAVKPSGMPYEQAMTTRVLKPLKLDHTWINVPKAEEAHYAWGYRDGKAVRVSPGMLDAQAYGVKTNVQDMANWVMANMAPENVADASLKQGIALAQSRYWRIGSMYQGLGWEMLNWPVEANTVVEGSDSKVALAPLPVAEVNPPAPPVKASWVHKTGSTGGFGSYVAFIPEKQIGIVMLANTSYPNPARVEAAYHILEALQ

SMILES | IC50 (SHV-5) | IC50 (KPC-2) | IC50 (VIM-2) | IC50 (AmpC) | IC50 (OXA-48) | MIC (μg/mL) of Exemplary Compounds in presence of fixed β-lactams: E. coli ESBL4 CTX-M-15 [1] | MIC (μg/mL) of Exemplary Compounds in presence of fixed β-lactams: E. cl. 144200 p99 AmpC [2] | MIC (μg/mL) of Exemplary Compounds in presence of fixed β-lactams: K. p. 156319 KPC-3 [3] | MIC (μg/mL) of Exemplary Compounds in presence of fixed β-lactams: P. aerug. 2775 VIM-2 [4] | MIC (μg/mL) of Exemplary Compounds in presence of fixed β-lactams: K. p. A-1797 KPC-2 VIM-4 [5] | MIC (μg/mL) of Exemplary Compounds in presence of fixed β-lactams: K. p. 11978 OXA-48 [6]
O=C(Cc1nnn(C2CNC2)n1)N[C@H]1Cc2cccc(C(=O)O)c2OB1O [Example 100, (R)-3-(2-(2-(azetidin-3-yl)-2H-tetrazol-5-yl)acetamido)-2-hydroxy-3,4-dihydro-2H-benzo[e][1,2]oxaborinine-8-carboxylic acid] | < 0.1 µM | 0.1 to 1 µM | < 0.1 µM | < 0.1 µM | < 0.1 µM | C (C represents an MIC of <1 μg/mL) | C (C represents an MIC of <1 μg/mL) | C (C represents an MIC of <1 μg/mL) | C (C represents an MIC of <1 μg/mL) | B (B represents an MIC between 1 and 16 μg/mL inclusive) | C (C represents an MIC of <1 μg/mL)
O=C(Cc1nnnn1CCF)N[C@H]1Cc2cccc(C(=O)O)c2OB1O [Example 101, (R)-3-(2-(1-(2-fluoroethyl)-1H-tetrazol-5-yl)acetamido)-2-hydroxy-3,4-dihydro-2H-benzo[e][1,2]oxaborinine-8-carboxylic acid] | < 0.1 µM | < 0.1 µM | 0.1 to 1 µM | < 0.1 µM | < 0.1 µM | C (C represents an MIC of <1 μg/mL) | C (C represents an MIC of <1 μg/mL) | B (B represents an MIC between 1 and 16 μg/mL inclusive) | C (C represents an MIC of <1 μg/mL) | B (B represents an MIC between 1 and 16 μg/mL inclusive) | C (C represents an MIC of <1 μg/mL)
NCCc1nnnn1CC(=O)N[C@H]1Cc2cccc(C(=O)O)c2OB1O [Example 102, (R)-3-(2-(5-(2-aminoethyl)-1H-tetrazol-1-yl)acetamido)-2-hydroxy-3,4-dihydro-2H-benzo[e][1,2]oxaborinine-8-carboxylic acid] | 0.1 to 1 µM | < 0.1 µM | < 0.1 µM | < 0.1 µM | 0.1 to 1 µM | C (C represents an MIC of <1 μg/mL) | C (C represents an MIC of <1 μg/mL) | B (B represents an MIC between 1 and 16 μg/mL inclusive) | C (C represents an MIC of <1 μg/mL) | B (B represents an MIC between 1 and 16 μg/mL inclusive) | B (B represents an MIC between 1 and 16 μg/mL inclusive)
NCCc1nnn(CC(=O)N[C@H]2Cc3cccc(C(=O)O)c3OB2O)n1 [Example 103, (R)-3-(2-(5-(2-aminoethyl)-2H-tetrazol-2-yl)acetamido)-2-hydroxy-3,4-dihydro-2H-benzo[e][1,2]oxaborinine-8-carboxylic acid] | 0.1 to 1 µM | < 0.1 µM | 0.1 to 1 µM | < 0.1 µM | 0.1 to 1 µM | C (C represents an MIC of <1 μg/mL) | C (C represents an MIC of <1 μg/mL) | C (C represents an MIC of <1 μg/mL) | C (C represents an MIC of <1 μg/mL) | B (B represents an MIC between 1 and 16 μg/mL inclusive) | B (B represents an MIC between 1 and 16 μg/mL inclusive)
N=CNCCn1nnnc1CC(=O)N[C@H]1Cc2cccc(C(=O)O)c2OB1O [Example 104, (R)-3-(2-(1-(2-formimidamidoethyl)-1H-tetrazol-5-yl)acetamido)-2-hydroxy-3,4-dihydro-2H-benzo[e][1,2]oxaborinine-8-carboxylic acid] | < 0.1 µM | < 0.1 µM | 0.1 to 1 µM | < 0.1 µM | 0.1 to 1 µM | C (C represents an MIC of <1 μg/mL) | C (C represents an MIC of <1 μg/mL) | C (C represents an MIC of <1 μg/mL) | C (C represents an MIC of <1 μg/mL) | C (C represents an MIC of <1 μg/mL) | C (C represents an MIC of <1 μg/mL)
NCc1nnn(CC(=O)N[C@H]2Cc3cccc(C(=O)O)c3OB2O)c1I [Example 105, (R)-3-(2-(4-(aminomethyl)-5-iodo-1H-1,2,3-triazol-1-yl)acetamido)-2-hydroxy-3,4-dihydro-2H-benzo[e][1,2]oxaborinine-8-carboxylic acid] | 0.1 to 1 µM | < 0.1 µM | < 0.1 µM | < 0.1 µM | < 0.1 µM | C (C represents an MIC of <1 μg/mL) | C (C represents an MIC of <1 μg/mL) | C (C represents an MIC of <1 μg/mL) | C (C represents an MIC of <1 μg/mL) | C (C represents an MIC of <1 μg/mL) | C (C represents an MIC of <1 μg/mL)
Cc1c(CN)nnn1CC(=O)N[C@H]1Cc2cccc(C(=O)O)c2OB1O [Example 106, (R)-3-(2-(4-(aminomethyl)-5-methyl-1H-1,2,3-triazol-1-yl)acetamido)-2-hydroxy-3,4-dihydro-2H-benzo[e][1,2]oxaborinine-8-carboxylic acid] | 0.1 to 1 µM | < 0.1 µM | < 0.1 µM | < 0.1 µM | < 0.1 µM | C (C represents an MIC of <1 μg/mL) | C (C represents an MIC of <1 μg/mL) | C (C represents an MIC of <1 μg/mL) | C (C represents an MIC of <1 μg/mL) | C (C represents an MIC of <1 μg/mL) | B (B represents an MIC between 1 and 16 μg/mL inclusive)
NCc1nnn(CC(=O)N[C@H]2Cc3cccc(C(=O)O)c3OB2O)c1Cl [Example 107, (R)-3-(2-(4-(aminomethyl)-5-chloro-1H-1,2,3-triazol-1-yl)acetamido)-2-hydroxy-3,4-dihydro-2H-benzo[e][1,2]oxaborinine-8-carboxylic acid] | 0.1 to 1 µM | < 0.1 µM | < 0.1 µM | < 0.1 µM | < 0.1 µM | C (C represents an MIC of <1 μg/mL) | B (B represents an MIC between 1 and 16 μg/mL inclusive) | C (C represents an MIC of <1 μg/mL) | C (C represents an MIC of <1 μg/mL) | C (C represents an MIC of <1 μg/mL) | B (B represents an MIC between 1 and 16 μg/mL inclusive)
